± gives the expanded uncertainty stated by the source.
What was measured:
[1] = Molar enthalpy of transition or fusion; settings: Crystal; DSC
[2] = Crystal; DTA

- Molar enthalpy of transition or fusion [1]: 9.1 ± 0.196 kcal/mol
- Normal melting temperature [2]: 49.20 ± 1.1 °C
Structure (SMILES): CCCCCCCCCCCCCCCc1cccc(O)c1 [3-pentadecylphenol]

Reference: the NIST ThermoML archive (doi:10.1021/je900346t)
